Measurements from publication PMC6472409, “Dishevelled-3 conformation dynamics analyzed by FRET-based biosensors reveals a key role of casein kinase 1” (Nature Communications, 2019).
Residue numbers refer to the chain shown, from its start. Where a SMILES comes first, the peptide text is derived from it. [ ]: non-standard residue; d: D form. pS = N[C@@H](COP(=O)(O)O)C(=O)O

Tests used:
Assay type in all cases: binding
[1] = molecular target: T1, PDZ (S286E/S329E) from DVL2 (Homo sapiens, UniProt O14641, S286E/S329E); experiment: Surface plasmon resonance, PDZ phosphorylation-mimicking variant; conditions: for Response (R.U.): SPR, equilibrium
T1 construct: The PDZ domain of human DVL2 wild type (aa 265–361) and phosphorylation-mimicking variant S286E + S329E; His6-tag (N, cleaved yes); lipoyl domain (N, cleaved yes); made in house; host or cells: E. coli BL21 (DE3)
T1 sequence (O14641 265-361 S286E/S329E): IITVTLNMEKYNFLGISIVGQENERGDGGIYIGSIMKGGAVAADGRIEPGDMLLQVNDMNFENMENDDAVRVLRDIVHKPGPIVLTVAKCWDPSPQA
Description: (§1) The PDZ domain of human DVL2 wild type (aa 265–361) and phosphorylation-mimicking variant S286E + S329E were cloned into pET vector containing an N-terminal His6-tag and a lipoyl domain separated by a Tobacco Etch Virus (TEV) protease digestion site from the N-terminus of the inserts. Both proteins were expressed at high yields in E. coli BL21 (DE3) strain (New England Biolabs, #C2527I). For the NMR studies, ^13C- and ^15N-labeled proteins were prepared by growing cells in minimal medium supplemented with ^15NH4Cl (1 g/l) and ^13C6 glucose (2 g/l) as the sole nitrogen and carbon sources, respectively. Cells were grown at 37 °C to an OD600 of approximately 0.8 and protein expression was induced with 0.5 mM IPTG. Cells were lysed by sonication and centrifuged at 15,000g. Three purification steps were used for both proteins: Ni-NTA chromatography followed by overnight TEV cleavage to remove the N-terminal His6-tag and the lipoyl domain, ion exchange chromatography, and size exclusion chromatography. Finally, the untagged PDZ domain wild type or phosphorylation-mimicking variant was concentrated and exchanged to buffer for NMR or binding experiments containing 20 mM HEPES (pH 6.8) and 50 mM KCl. Human CK1ε (aa 1–294) was also cloned into a pET vector and purified using three purification steps as described for the PDZ domain.
(§2) SPR experiments were performed on a Biacore T200 instrument (GE Healthare). The wild type and phosphorylation-mimicking variant of PDZ from DVL2 were immobilized on carboxy-methylated dextran matrix (CM5 chip S Series) using amino coupling. Non-reacted groups were blocked by 1 M ethanolamine. […] The C-terminal DVL peptide (aa 698–716 from DVL3; pS700) was injected at increasing concentrations and long enough to reach steady state. SPR responses were measured and corrected for the response of the blank. Data points were collected from each binding sensogram before the end of the injection (equilibrium) and the dissociation constants were estimated by fitting the response at equilibrium versus the C-terminal peptide concentration using the following equation: Req = C*Rmax/(KD + C), where Req is the binding level in Response Units at different C-terminal peptide concentrations (C), Rmax the response at saturation (fitted), and KD the apparent dissociation constant (fitted).

[2] = molecular target: T2, PDZ (S286E/S329E) of human DVL2 (Homo sapiens, UniProt O14641, S286E/S329E); experiment: NMR titration with DVL C-terminal peptide, PDZ phosphorylation-mimicking variant
T2 construct: The PDZ domain of human DVL2 wild type (aa 265–361) and phosphorylation-mimicking variant S286E + S329E; His6-tag (N, cleaved yes); lipoyl domain (N, cleaved yes); made in house; host or cells: E. coli BL21 (DE3)
T2 sequence (O14641 265-361 S286E/S329E): T1 sequence (O14641 265-361 S286E/S329E)
Description: as §1
(§3) A 4D HC(CC-TOCSY(CO))NH and a 4D ^13C, ^15N edited HMQC-NOESY-HSQC experiments were recorded at CEITEC Josef Dadok National NMR Centre on a 700 MHz Bruker Avance III spectrometers equipped with ^1H/^13C/^15N TCI cryogenic probe head with z-axis gradients. 4D spectra were processed with SSA package[59] and analyzed with SPARKY. Chemical shift assignments were obtained automatically using 4D-CHAINS[60] and checked manually. NMR titrations were performed in series of ^1H, ^15N HSQC spectra using 100 μM of ^15N-labeled protein (wild type or phosphorylation-mimicking variant) and increasing amounts of C-terminal DVL peptide (pS700) consisted of aa 698–716 from DVL3 (stock concentration of 800 μM). Steady-state^15N-^1H Nuclear Overhauser Effect values were measured under a steady-state condition with a 30 s interscan relaxation delay. Reference spectra and the spectra measured under steady-state conditions were measured in an interleaved manner.

[3] = molecular target: T3, PDZ domain of human DVL2 wild type (aa 265–361) (Homo sapiens, UniProt O14641); experiment: NMR titration with DVL C-terminal peptide, PDZ wild type
T3 construct: The PDZ domain of human DVL2 wild type (aa 265–361); His6-tag (N, cleaved yes); lipoyl domain (N, cleaved yes); made in house; host or cells: E. coli BL21 (DE3)
T3 sequence (O14641 265-361): T1 sequence (O14641 265-361 S286E/S329E) with E22S, E65S
Description: as §1, §3

PDZ wild type from DVL2 = molecular target: T4, PDZ wild type from DVL2 (Homo sapiens, UniProt O14641); experiment: Surface plasmon resonance, PDZ wild type; conditions: for Response (R.U.): SPR, equilibrium
T4 construct: The PDZ domain of human DVL2 wild type (aa 265–361); His6-tag (N, cleaved yes); lipoyl domain (N, cleaved yes); made in house; host or cells: E. coli BL21 (DE3)
T4 sequence (O14641 265-361): T1 sequence (O14641 265-361 S286E/S329E) with E22S, E65S
Description: as §1, §2

[4] = Biacore T200, PDZ immobilized on CM5 chip, steady-state fit, read-out: apparent KD (SPR, one-site binding model)

## CSCC[C@H](NC(=O)[C@@H](NC(=O)[C@H](CC(=O)O)NC(=O)[C@@H](NC(=O)[C@H](Cc1ccccc1)NC(=O)[C@H](Cc1ccccc1)NC(=O)[C@H](CCC(=O)O)NC(=O)[C@H](CO)NC(=O)[C@@H]1CCCN1C(=O)[C@H](CC(N)=O)NC(=O)CNC(=O)[C@H](CCSC)NC(=O)[C@H](C)NC(=O)[C@H](CCSC)NC(=O)[C@H](CCCNC(=N)N)NC(=O)[C@H](Cc1ccccc1)NC(=O)[C@H](COP(=O)(O)O)NC(=O)[C@H](CCC(N)=O)NC(=O)[C@@H](N)CCCNC(=N)N)C(C)C)C(C)C)C(=O)O [DVL C-terminal peptide] (H-RQ[pS]FRMAMGNPSEFFVDVM-OH)
[1]; [4]
  Kd: 754 µM
[1]; pFRMA 3.125 uM
  Response (R.U.): 1.637 R.U.
[1]; pFRMA 6.25 uM
  Response (R.U.): 1.9305 R.U.
[1]; pFRMA 12.5 uM
  Response (R.U.): 2.181 R.U.
[1]; pFRMA 25 uM
  Response (R.U.): 2.621 R.U.
[1]; pFRMA 50 uM
  Response (R.U.): 3.732 R.U.
[1]; pFRMA 100 uM
  Response (R.U.): 5.135 R.U.
[1]; pFRMA 200 uM
  Response (R.U.): 8.677 R.U.
[1]; pFRMA 400 uM
  Response (R.U.): 16.554 R.U.
[1]; apparent dissociation constants from SPR
  peptide affinity of phosphorylation-mimicking variant compared with PDZ wt (SPR): two-fold lower peptide affinity
[2]; fast exchange peaks, quantitative analysis
  affinity of phosphorylation-mimicking variant compared with PDZ wt (NMR): two-fold weaker affinity
[2]; pFRMA 50 uM
  Δδ (p.p.m.) F277: 0.02 p.p.m.
  Δδ (p.p.m.) H342: 0.032 p.p.m.
  Δδ (p.p.m.) K301: 0.026 p.p.m.
[2]; pFRMA 100 uM
  Δδ (p.p.m.) F277: 0.03 p.p.m.
  Δδ (p.p.m.) H342: 0.056 p.p.m.
  Δδ (p.p.m.) K301: 0.044 p.p.m.
[2]; pFRMA 200 uM
  Δδ (p.p.m.) F277: 0.048 p.p.m.
  Δδ (p.p.m.) H342: 0.093 p.p.m.
  Δδ (p.p.m.) K301: 0.071 p.p.m.
[2]; pFRMA 400 uM
  Δδ (p.p.m.) F277: 0.084 p.p.m.
  Δδ (p.p.m.) H342: 0.164 p.p.m.
  Δδ (p.p.m.) K301: 0.128 p.p.m.
[3]; pFRMA 50 uM
  Δδ (p.p.m.) F277: 0.028 p.p.m.
  Δδ (p.p.m.) H342: 0.043 p.p.m.
  Δδ (p.p.m.) K301: 0.035 p.p.m.
[3]; pFRMA 100 uM
  Δδ (p.p.m.) F277: 0.046 p.p.m.
  Δδ (p.p.m.) H342: 0.07 p.p.m.
  Δδ (p.p.m.) K301: 0.06 p.p.m.
[3]; pFRMA 200 uM
  Δδ (p.p.m.) F277: 0.066 p.p.m.
  Δδ (p.p.m.) H342: 0.109 p.p.m.
  Δδ (p.p.m.) K301: 0.092 p.p.m.
[3]; pFRMA 400 uM
  Δδ (p.p.m.) F277: 0.112 p.p.m.
  Δδ (p.p.m.) H342: 0.174 p.p.m.
  Δδ (p.p.m.) K301: 0.148 p.p.m.
PDZ wild type from DVL2; [4]
  Kd: 305 µM
PDZ wild type from DVL2; pFRMA 3.125 uM
  Response (R.U.): 3.399 R.U.
PDZ wild type from DVL2; pFRMA 6.25 uM
  Response (R.U.): 3.725 R.U.
PDZ wild type from DVL2; pFRMA 12.5 uM
  Response (R.U.): 4.287 R.U.
PDZ wild type from DVL2; pFRMA 25 uM
  Response (R.U.): 4.98 R.U.
PDZ wild type from DVL2; pFRMA 50 uM
  Response (R.U.): 6.694 R.U.
PDZ wild type from DVL2; pFRMA 100 uM
  Response (R.U.): 9.137 R.U.
PDZ wild type from DVL2; pFRMA 200 uM
  Response (R.U.): 14.3144 R.U.
PDZ wild type from DVL2; pFRMA 400 uM
  Response (R.U.): 24.5768 R.U.
